Results as given in publication PMC3340383, “Synthesis and Evaluation of a Series of 2-Substituted-5-Thiopropylpiperazine (Piperidine)-1,3,4-Oxadiazoles Derivatives as Atypical Antipsychotics” (PLoS ONE, 2012).
Marks after values point to notes of the source that are not given here.

Experiments:
mice = assay: Acute toxicity study; assay type: in vivo; details: oral, survival after 24 h, highest dose 2000 mg/kg
Procedure: The number of surviving animals was recorded after 24 h of drug administration, and the percent mortality in each group was calculated.

[1] = target: T1, serotonin 5-HT2C receptor (Rattus norvegicus, UniProt P08909); assay: 5-HT2C binding assay ([3H]mesulergine, rat brain cortex); details: mean of three experiments, read-out: Ki±SEM, 5HT2C
T1 construct: Rat cerebral cortex was homogenized in 20 volumes of ice-cold Tris-HCl buffer; from tissue; host or cells: rat brain (cerebral) cortex
T1 sequence (P08909 33-460): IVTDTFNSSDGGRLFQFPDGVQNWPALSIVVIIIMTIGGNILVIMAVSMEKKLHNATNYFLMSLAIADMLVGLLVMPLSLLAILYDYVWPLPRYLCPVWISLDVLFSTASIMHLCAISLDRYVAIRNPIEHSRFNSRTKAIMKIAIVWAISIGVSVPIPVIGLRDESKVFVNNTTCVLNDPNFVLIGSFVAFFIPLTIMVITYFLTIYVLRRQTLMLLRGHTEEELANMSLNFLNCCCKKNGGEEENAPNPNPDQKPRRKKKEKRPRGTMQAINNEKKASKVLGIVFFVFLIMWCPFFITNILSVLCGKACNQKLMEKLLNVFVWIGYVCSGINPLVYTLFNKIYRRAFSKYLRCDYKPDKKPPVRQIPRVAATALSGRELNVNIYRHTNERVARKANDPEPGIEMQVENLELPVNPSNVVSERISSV
Procedure: (§1) All the new compounds were dissolved in 5% DMSO. The following specific radioligands and tissue sources were used: (a) serotonin 5-HT1A receptor, [^3H]8-OH-DPAT, rat brain cortex; (b) serotonin 5-HT2A receptor, [^3H]ketanserin, rat brain cortex; (c) serotonin 5-HT2C receptor, [^3H]mesulergine, rat brain cortex; (d) dopamine D2 receptor, [^3H]spiperone, rat striatum; (e) dopamine D3 receptor, [^3H]spiperone, rat olfactory tubercle (f) histamine H1 receptor, [^3H] pyrilamine, guinea pig cerebellum.
Total binding was determined in the absence of no-specific binding and compounds. Specific binding was determined in the presence of compounds. Non-specific binding was determined as the difference between total and specific binding. […]
Ki values were calculated based on the Cheng and Prussoff equation: Ki = IC50/(1+C/Kd) where C represents the concentration of the hot ligand used and Kd its receptor dissociation constant were calculated for each labeled ligand. […]
The resulting pellet was resuspended in the same quantity of the buffer centrifuged for 20 min. […]
(§2) The incubation was followed by a rapid vacuum filtration through Whatman GF/B glass filters, and the filtrates were washed twice with 5 mL cold buffer and transferred to scintillation vials. Scintillation fluid (3.0 mL) was added and the radioactivity bound was measured using a Beckman LS 6500 liquid scintillation counter.

histamine H1 receptor = target: T2, histamine H1 receptor (Cavia porcellus, UniProt P31389); assay: Histamine H1 binding assay ([3H]pyrilamine, guinea pig cerebellum); details: [3H]pyrilamine, guinea pig cerebellum; mean of three experiments; >10000 marked b: Ki not calculated, inhibition at 10 µM too low; read-out: Ki±SEM, H1
T2 construct: Guinea pig cerebellum was homogenized in 20 volumes of ice-cold 50 mM phosphate buffer; from tissue; host or cells: guinea pig cerebellum
Procedure: as §1
Total binding was determined in the absence of no-specific binding and compounds. Specific binding was determined in the presence of compounds. Non-specific binding was determined as the difference between total and specific binding.
Percentage of inhibition (%) = (total binding − specific binding)×100%/(total binding − nonspecific binding).
Ki values were calculated based on the Cheng and Prussoff equation: Ki = IC50/(1+C/Kd) where C represents the concentration of the hot ligand used and Kd its receptor dissociation constant were calculated for each labeled ligand. Mean Ki values and SEM were reported for at least three independent experiments.
as §2

[2] = test system: apomorphine-induced climbing behavior in mice; assay: Apomorphine-induced climbing; assay type: in vivo; details: mice, po; 95% confidence limits in parentheses
Procedure: . […] . Animals were then challenged at 30 minutes post-injection with 1.0 mg/kg of the apomorphine in 0.9% NaCl+0.1% ascorbic acid, placed in cylindrical wire cages (12 cm in diameter, 14 cm in height), and observed for climbing behavior at 10, 20 and 30 min post dose. The climbing behaviour was scored as follows: 3–4 paws on the cage floor = 0 score; 2 and 3 paws on the cage = 1 score; 4 paws on the cage = 2 score.

[3] = Pharmacokinetics study in rat; assay type: in vivo; details: rats
Procedure: The HPLC conditions were as follows: column, Shim-pack ODS 5.0 µm×150 mm×2.0 mm I.D (SHIMADZU, Japanese); mobile phase, 0.0167% HCOOH (TEDIA Company, USA)/acetonitrile (Merck Company, Germany)50/50; flow rate, 0.2 mL/min; column temperature, 40°C.
For routine compound 22 screening rats (n = 6/group) were dosed via the lateral tail vein at the indicated dose for intravenous administration (5 mg/kg, 100% saline) or via oral gavage (20 mg/kg, suspension in 0.5% methylcellulose). At 30 min, 1 h, 2 h, 3 h, 4 h, 5 h, 6 h, 7 h and 24 h after administration, serial blood samples were collected from the lateral tail vein into heparinized collection tubes (approximately 0.25 mL). The plasma was separated by centrifugation, and the sample was prepared for analysis HPLC/MS by protein precipitation with acetonitrile. The plasma samples were analyzed for drug and internal standard via HPLC-MS/MS protocol.

T2 sequence (P31389 whole entry): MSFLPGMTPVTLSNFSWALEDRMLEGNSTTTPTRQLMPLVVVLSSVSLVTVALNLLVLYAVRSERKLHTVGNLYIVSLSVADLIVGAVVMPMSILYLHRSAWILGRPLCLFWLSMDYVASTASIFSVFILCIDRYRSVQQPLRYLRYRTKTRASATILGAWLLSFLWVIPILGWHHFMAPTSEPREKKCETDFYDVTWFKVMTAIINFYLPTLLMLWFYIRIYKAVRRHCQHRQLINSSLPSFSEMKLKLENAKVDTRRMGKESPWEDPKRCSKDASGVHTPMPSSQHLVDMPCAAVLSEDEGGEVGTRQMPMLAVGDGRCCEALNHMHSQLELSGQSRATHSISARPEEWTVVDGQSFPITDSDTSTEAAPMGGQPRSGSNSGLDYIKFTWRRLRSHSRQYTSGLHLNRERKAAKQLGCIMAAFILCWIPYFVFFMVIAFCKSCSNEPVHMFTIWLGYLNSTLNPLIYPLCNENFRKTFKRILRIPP

Question: Which results are given for `Fc1ccc2c(C3CCN(CCCSc4nnc(-c5cccc6ccccc56)o4)CC3)noc2c1` [Compound 22, 2-(3-(4-(6-fluorobenzo[d]isoxazol-3-yl)piperidin-1-yl)propylthio)-5-(naphthalen-1-yl)-1,3,4-oxadiazole]?
Answer: LD50 (mice): > 2000 mg/kg; Ki [1]: 861 ± 86.2 nM; Ki (histamine H1 receptor): > 10000 nM; Apomorphine-induced climbing ED50 (A) [2]: 3.68 (2.79–4.86) ^a mg/kg; AUC0-inf ([3]; i.v. 5 mg/kg, plasma, n = 6): 6239.0 ng·h/mL; t1/2 ([3]; i.v. 5 mg/kg, plasma, n = 6): 9.3 h; F (bioavailability) ([3]; oral 20 mg/kg vs i.v. 5 mg/kg): 54.5%; AUC0-inf ([3]; oral 20 mg/kg, plasma, n = 6): 13602.7 ng·h/mL; Cmax ([3]; oral 20 mg/kg, plasma, n = 6): 723.6 ng/mL; Tmax ([3]; oral 20 mg/kg, plasma, n = 6): 5 h; t1/2 ([3]; oral 20 mg/kg, plasma, n = 6): 8.6 h
